In patent US11660286B2, “Methods and compositions comprising a nitrite-reductase promoter for treatment of medical disorders and preservation of blood products” (EpicentRx, Inc., priority 2011, dated 2023):
Read-outs that look alike come from different tables or passages of the source.

Tests used:
[1] = test system: hemorrhagic shock; type: in vivo, Golden Syrian Hamsters
Protocol: (§1) Experiments were performed in 55-65 g male Golden Syrian Hamsters (Charles River Laboratories, Boston, Mass.) fitted with a dorsal skinfold window chamber. Animal handling and care followed the NIH Guide for the Care and Use of Laboratory Animals. The hamster window chamber model is widely used for microvascular studies in the unanesthetized state. The complete surgical technique is described in detail elsewhere, such as in Colantuoni et al. in Am J Physiol 1984; 246:H508-17. Three to four days after the initial surgery, the microvasculature was examined and only animals passing an established systemic and microcirculatory inclusion criteria, as previously described (e.g., in Cabrales P. Low dose nitrite enhances perfusion after fluid resuscitation from hemorrhagic shock. Resuscitation 2009; 80: 1431-6), were entered into the study.
Acute hemorrhage was induced by withdrawing 50% of estimated total blood volume (BV) via the carotid artery catheter within 5 min. Total BV was estimated as 7% of body weight. […]
Conscious animal was placed in a restraining tube with a longitudinal slit from which the window chamber protruded, then fixed to the microscopic stage for transillumination with the intravital microscope (BX51WI, Olympus, New Hyde Park, N.Y.). […] Systemic (MAP, HR, Het, Hb, PaO2, PaCO2, pH, lactate, plasma nitrite, and metHb) and microvascular (artciorlar and venular diameters, blood flow, and FCD) parameters were analyzed, as previously described (e.g., in P. Nachuraju et al. in Resuscitation 2011; 82:607-613; Cabrales P. in Resuscitation 2009; 80:1431-6; Cabrales et al. in Shock 2007; 27:380-9; and Cabrales et al. in Am J Physiol 2004; 287:H363-73) before hemorrhage (baseline), after hemorrhage (shock), and up to 90 min after volume replacement (resuscitation). Tissue viability was measured at 8 hours following hemorrhage as described previously (e.g., in Yang et al. In Invest Ophthalmol Vis Sci 2003; 44:1993-1997; and Cabrales et al. in Antioxid Redox Signal 2007; 9:375-84). […]

[2] = test system: hemorrhagic shock; assay: Resuscitation from hemorrhagic shock, hamster window chamber model: systemic parameters; conditions: for BP / HR / Hb / Hct / Lactate / pCO2 / pO2 / pH: mean ± SD; for pH: arterial
Protocol: as §1
(§2) Acute hemorrhage was induced by withdrawing 50% of estimated total blood volume (BV) via the carotid artery catheter within 5 min. Total BV was estimated as 7% of body weight. One hour after hemorrhage induction, animals received 25% of BY of resuscitation (200 μl/min) via the jugular vein catheter, implemented with the volume resuscitation strategy defined by the group name, according to the scheme described before.
(§3) Fresh blood was collected from a donor, adult male Golden Syrian Hamsters (60-80 g). Briefly, hamster donors were anaesthetized, left carotid artery catheter was implanted, and blood was allowed to flow into heparinized tubes (sodium heparin 15 IU/mL). RBCs and plasma were separated by centrifugation (2700 rpm, 7 min). Buffy coat was discarded. RRx-001 treated cells were prepared by incubation of 1 mL of packed cells with 2 mg of RRx-001 for 30 minutes at 4° C., cells were rinsed 2× by centrifugation at 3,000 rpm with phosphate buffer saline (PBS) solution with 0.5% albumin (pre-filtered 0.22 μm, pH 7.4). After the final wash, red blood cells (RBCs) were adjusted to a 30% Het with fresh plasma.
(§4) For the groups that received “nitrite,” 10 μM (in saline 100 μL) of sodium nitrite in saline was infused via the carotid artery catheter 10 minutes after resuscitation for the groups that received nitrite. An equal volume of saline was given to the other groups. To address effects of instrumentation and observation, an additional Sham group was included.
(§5) Conscious animal was placed in a restraining tube with a longitudinal slit from which the window chamber protruded, then fixed to the microscopic stage for transillumination with the intravital microscope (BX51WI, Olympus, New Hyde Park, N.Y.). Animals were given 20 min to adjust to the tube environment before any measurements were made. The tissue image was projected onto a charge-coupled device camera (4815, COHU, San Diego, Calif.) connected to a videocassette recorder and viewed on a monitor. Measurements were carried out using a 40× (LUMPFL-WIR, numerical aperture 0.8, Olympus) water immersion objective. Systemic (MAP, HR, Het, Hb, PaO2, PaCO2, pH, lactate, plasma nitrite, and metHb) and microvascular (artciorlar and venular diameters, blood flow, and FCD) parameters were analyzed, as previously described (e.g., in P. Nachuraju et al. in Resuscitation 2011; 82:607-613; Cabrales P. in Resuscitation 2009; 80:1431-6; Cabrales et al. in Shock 2007; 27:380-9; and Cabrales et al. in Am J Physiol 2004; 287:H363-73) before hemorrhage (baseline), after hemorrhage (shock), and up to 90 min after volume replacement (resuscitation). Tissue viability was measured at 8 hours following hemorrhage as described previously (e.g., in Yang et al. In Invest Ophthalmol Vis Sci 2003; 44:1993-1997; and Cabrales et al. in Antioxid Redox Signal 2007; 9:375-84).
(§6) Table and figure results are presented as mean±SD.

[3] = test system: hemorrhagic shock; assay: Resuscitation from hemorrhagic shock, hamster window chamber model: microvascular measurements; type: in vivo, Golden Syrian Hamsters; conditions: for functional capillary density (FCD), baseline average and standard deviation: before hemorrhage (FIG. 11)
Protocol: as §1, §2, §3, §4, §5, §6

[4] = test system: blood sample; assay: Nitric oxide production in a sample of blood with sodium nitrite (Tonometer, chemiluminescent NO analysis); type: cell-based; conditions: anaerobic conditions (N2 atmosphere), 30 min, 37° C., compared to without ABDNAZ or with ABDNAZ under air
Protocol: The ability of ABDNAZ to increase nitric oxide production in a sample of blood under aerobic conditions and anaerobic conditions was evaluated.
A 0.5 mL aliquot of blood was placed in a tonometer. ABDNAZ (5 μL of a 300 mM solution of ABDNAZ in dimethylsulfoxide) was optionally added to the blood sample in the Tonometer. Sodium nitrite was added to the blood sample to achieve a sodium nitrite concentration of 167 mM. Gas (either air or N2) was passed through the Tonometer at a flow rate of 150 mL/min. Gas exiting the Tonometer was collected in three-minute intervals for a period of thirty minutes. The amount of nitric oxide in each of the collected fractions was measured by a chemiluminescent reaction with ozone in a Sievers Nitric Oxide Analyzer. The amount of nitric oxide produced from the blood sample was expressed per mole of hemoglobin present in the blood sample. All experiments were performed at 37° C.
The amount of hemoglobin (Hb) and hematocrit (Het) in the blood sample was determined using an Advia analyzer.

[5] = test system: hemorrhagic shock; conditions: 50 μM nitrite, previous study, cited from earlier work
[6] = 8 hours following resuscitation, cells in 40 fields
[7] = Shock (50 min), after hemorrhage, before resuscitation
[8] = Shock (50 min), before resuscitation
[9] = 60 minutes following resuscitation
[10] = 90 minutes following resuscitation

O=C(CBr)N1CC([N+](=O)[O-])([N+](=O)[O-])C1 [RRx-001]
number of apoptotic cells compared to the blood group [1, 6]: significantly (P<0.01) less
number of necrotic cells compared to the blood group [1, 6]: significantly (P<0.01) less
metHb levels ([2]; 60 and 90 minutes post fluid resuscitation (FIG. 9), normal about 1% of total Hb): normal
MAP compared to the blood group ([2]; 30 minutes following resuscitation): only decreased at 30 minutes
metHb levels ([2]; 60 minutes following resuscitation, RRx-001 treated blood): 1.4±0.1%
pH compared to the blood group ([2]; 60 minutes post resuscitation): significantly increased
blood pressure (MAP) after resuscitation from shock ([2]; 60 minutes, comparator not stated): significantly decreased
metHb levels ([2]; 90 minutes following resuscitation, RRx-001 treated blood): 1.2±0.1%
pO2 levels compared to the blood group ([2]; 90 minutes post resuscitation): significantly increased
BP ([2]; Baseline (before hemorrhage)): 106.3 ± 8.7 mmHg
HR ([2]; Baseline (before hemorrhage)): 409 ± 21 bpm
Hb ([2]; Baseline (before hemorrhage)): 15.1 ± 0.3 g/dL
Hct ([2]; Baseline (before hemorrhage)): 49.7 ± 1.0%
Lactate ([2]; Baseline (before hemorrhage)): 1.39 ± 0.20 mmol/L
pCO2 ([2]; Baseline (before hemorrhage)): 54.2 ± 1.8 mmHg
pO2 ([2]; Baseline (before hemorrhage)): 59.9 ± 2.5 mmHg
blood pressure following resuscitation ([2]; RRx-001 treated blood, current study): maintained blood pressure
BP ([2]; Resuscitation (30 min)): 92.5 ± 6.7 mmHg
HR ([2]; Resuscitation (30 min)): 436 ± 12 bpm
BP ([2]; Resuscitation (60 min)): 98.5 ± 7.6 mmHg
HR ([2]; Resuscitation (60 min)): 444 ± 10 bpm
Hb ([2]; Resuscitation (60 min)): 9.5 ± 0.2 g/dL
Hct ([2]; Resuscitation (60 min)): 31.1 ± 0.6%
Lactate ([2]; Resuscitation (60 min)): 1.93 ± 0.23 mmol/L
pCO2 ([2]; Resuscitation (60 min)): 48.0 ± 3.1 mmHg
pO2 ([2]; Resuscitation (60 min)): 70.9 ± 3.4 mmHg
BP ([2]; Resuscitation (90 min)): 106.3 ± 9.0 mmHg
HR ([2]; Resuscitation (90 min)): 453 ± 17 bpm
Hb ([2]; Resuscitation (90 min)): 9.5 ± 0.1 g/dL
Hct ([2]; Resuscitation (90 min)): 31.2 ± 0.6%
Lactate ([2]; Resuscitation (90 min)): 1.63 ± 0.23 mmol/L
pCO2 ([2]; Resuscitation (90 min)): 49.0 ± 2.2 mmHg
pO2 ([2]; Resuscitation (90 min)): 68.7 ± 2.9 mmHg
BP [2, 7]: 46.3 ± 4.0 mmHg
HR [2, 7]: 422.5 ± 25 bpm
Hb [2, 7]: 8.9 ± 0.3 g/dL
Hct [2, 7]: 29.0 ± 0.8%
Lactate [2, 8]: 4.16 ± 0.39 mmol/L
pCO2 [2, 8]: 39.3 ± 1.2 mmHg
pO2 [2, 8]: 94.9 ± 5.1 mmHg
pH ([2]; Baseline (before hemorrhage)): 7.32 ± 0.01
pH ([2]; Resuscitation (60 min)): 7.39 ± 0.01
pH ([2]; Resuscitation (90 min)): 7.36 ± 0.01
pH [2, 8]: 7.28 ± 0.02
HR compared to the blood group ([2]; following resuscitation): significantly increased
pCO2 levels compared to the blood group ([2]; following resuscitation): not significantly different
decreases in lactate levels compared to the blood group ([2]; post-resuscitation): did not reach significance
blood flow compared to the blood group [3, 9]: significantly (P<0.001) increased
blood flow compared to the blood group [3, 10]: significantly (P<0.001) increased
functional capillary density (FCD) compared to the blood group ([3]; 90 minutes post resuscitation): significant (P<0.05 and P<0.01, respectively) increases
functional capillary density (FCD), baseline average and standard deviation [3]: 112±9
amount of nitric oxide produced by the blood sample [4]: significant increase

O=NO [Nitrite, sodium nitrite]
number of necrotic cells compared to the blood group ([1]; hamster, in vivo): significantly reduced
BP ([2]; Baseline (before hemorrhage)): 104.3 ± 9.0 mmHg
HR ([2]; Baseline (before hemorrhage)): 428 ± 13 bpm
Hb ([2]; Baseline (before hemorrhage)): 15.2 ± 0.3 g/dL
Hct ([2]; Baseline (before hemorrhage)): 49.8 ± 0.8%
Lactate ([2]; Baseline (before hemorrhage)): 1.30 ± 0.13 mmol/L
pCO2 ([2]; Baseline (before hemorrhage)): 52.9 ± 1.2 mmHg
pO2 ([2]; Baseline (before hemorrhage)): 60.5 ± 1.0 mmHg
BP ([2]; Resuscitation (30 min)): 91.3 ± 6.9 mmHg
HR ([2]; Resuscitation (30 min)): 438 ± 21 bpm
BP ([2]; Resuscitation (60 min)): 96.3 ± 7.5 mmHg
HR ([2]; Resuscitation (60 min)): 447 ± 21 bpm
Hb ([2]; Resuscitation (60 min)): 9.5 ± 0.2 g/dL
Hct ([2]; Resuscitation (60 min)): 31.0 ± 0.7%
Lactate ([2]; Resuscitation (60 min)): 1.95 ± 0.11 mmol/L
pCO2 ([2]; Resuscitation (60 min)): 48.3 ± 2.2 mmHg
pO2 ([2]; Resuscitation (60 min)): 76.0 ± 2.9 mmHg
BP ([2]; Resuscitation (90 min)): 94.7 ± 6.5 mmHg
HR ([2]; Resuscitation (90 min)): 459 ± 14 bpm
Hb ([2]; Resuscitation (90 min)): 9.6 ± 0.1 g/dL
Hct ([2]; Resuscitation (90 min)): 31.5 ± 0.4%
Lactate ([2]; Resuscitation (90 min)): 1.71 ± 0.20 mmol/L
pCO2 ([2]; Resuscitation (90 min)): 45.0 ± 2.4 mmHg
pO2 ([2]; Resuscitation (90 min)): 65.2 ± 3.0 mmHg
BP [2, 7]: 46.1 ± 3.6 mmHg
HR [2, 7]: 455 ± 21 bpm
Hb [2, 7]: 8.9 ± 0.1 g/dL
Hct [2, 7]: 29.2 ± 0.5%
Lactate [2, 8]: 4.52 ± 0.58 mmol/L
pCO2 [2, 8]: 38.9 ± 1.3 mmHg
pO2 [2, 8]: 93.1 ± 2.8 mmHg
pH ([2]; Baseline (before hemorrhage)): 7.34 ± 0.02
pH ([2]; Resuscitation (60 min)): 7.38 ± 0.02
pH ([2]; Resuscitation (90 min)): 7.36 ± 0.02
pH [2, 8]: 7.30 ± 0.01
HR compared to the blood group ([2]; hamster, in vivo): significantly increased
MAP compared to the blood group ([2]; hamster, in vivo): significantly decreased
decreases in lactate levels compared to the blood group ([2]; hamster, in vivo): did not reach significance
pH compared to the blood group ([2]; hamster, in vivo): significantly increased
pO2 levels compared to the blood group ([2]; hamster, in vivo): significantly increased
% metHb [5, 9]: 5.8±1.8%
Blood pressure compared to 0 μM group (control group) [5, 9]: significantly decreased
% metHb [5, 10]: 3.1±1.3%
functional capillary density (FCD), baseline average and standard deviation [3]: 107±12
functional capillary density (FCD) compared to the blood group ([3]; hamster, in vivo): not significantly different
